Measured values published in US20090048269A1 (AstraZeneca AB, priority 2007, published 2009).

Key:
human ALK5 [1] = target: T1, human ALK5 (Homo sapiens, UniProt P36897); experiment: ALK5 Enzyme Assay 1; type: biochemical; parameters: 6His tagged ALK5 protein (amino acids 162-503) expressed in insect cells; 6His; made in house; host or cells: insect cells; conditions: read-out: EAA: activity (μM) using Enzyme Assay 1
T1 sequence (P36897 162-503): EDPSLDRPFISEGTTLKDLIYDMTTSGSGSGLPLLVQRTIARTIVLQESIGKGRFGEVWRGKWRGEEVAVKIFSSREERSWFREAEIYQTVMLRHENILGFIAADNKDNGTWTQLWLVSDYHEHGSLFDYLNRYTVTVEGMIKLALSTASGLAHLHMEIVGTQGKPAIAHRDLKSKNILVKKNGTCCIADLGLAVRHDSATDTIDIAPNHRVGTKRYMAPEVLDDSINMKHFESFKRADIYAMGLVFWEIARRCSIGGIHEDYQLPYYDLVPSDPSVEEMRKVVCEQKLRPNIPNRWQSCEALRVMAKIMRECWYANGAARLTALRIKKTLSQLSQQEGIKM
Description: This assay measures the ability of a compound to bind to and inhibit the activity of ALK5 protein in vitro. […] Assay measurements were performed in assay buffer comprising 60 mM HEPES pH 7.4, 3 mM MgCl2, 3 mM MnCl2, 3 μM Na orthovanadate, 1.2 mM DTT and 0.05% PEG2000. […] Reactions were performed in the presence of 200 μg/mL casein (Sigma-Aldrich C4765-10ML), 200 ng/mL ALK5, 0.5 μM ATP (Sigma-Aldrich A7699), 1 μCi/mL γ-33P ATP. Following addition of casein, ATP and compound, reactions were initiated by adding ALK5 enzyme and reactions run for 90 minutes. After incubation reactions were terminated by addition of 20 μL per well of 50% orthophosphoric acid. 20 minutes after addition of 70% v/v TCA, precipitated protein was transferred to GF/C 96 well plates using a Tomtec harvester with 1.5% orthophosphoric acid. […] All reactions were performed under linear kinetics.

[2] = test system: TGFβ1 mediated smad2 nuclear translocation; experiment: Cell Assay (Smad2 Redistribution Assay, MDA-MB-468 Smad2-EGFP cells); type: cell-based; conditions: Homo sapiens, read-out: CAA: cell assay activity
From the text: Ligand mediated translocation of R-Smads (Smads 1,2,3,5,8) is a well-documented phenomenon in a variety of cell types. (Derynck, R. and Zhang, Y., 2003, Nature, 425, 577-584, Shi, Y. and Massague, J., 2003, Cell, 113, 685-700). Specifically TGFβ1 and TGFβ3 cause phosphorylation and nuclear translocation of Smad2 and Smad3 transcription factors. Thus compound inhibition of TGFβsignalling can be estimated by measuring cellular distribution of Smad2 or 3 under activated TGFβpathway. The Smad2 Redistribution™ Assay (Fisher BioImage ApS) was used to assess in vitro cellular activity of compounds of interest. The breast adenocarcinoma MDA-MB-468 parent cell line was used to create a recombinant cell line, MDA-MB-468 PS213 I GScl4C8 containing Smad2 fused to the C-terminus of enhanced green fluorescent protein (Smad2-EGFP). This enables monitoring of cellular distribution of Smad2 using high throughput fluorescence microscopy.
This assay measures the ability of compounds to inhibit TGFβ1 mediated smad2 nuclear translocation. Compounds dose ranges were created by diluting in 100% DMSO and then further into assay media (RPMI1640, 1% FCS, 10 mM HEPES pH 7.4). Cells were plated in 96 well Packard View plates at 8×10^3 per well in 100 μL RPMI1640, 10% FCS, 0.5 mg/mL geneticin and grown for 48 hrs. […] Plates were then read on an ArrayScan Vti instrument to determine nuclear to cytoplasmic staining. […]

human ALK5 [3] = target: T1, human ALK5; experiment: ALK5 Enzyme Assay 2 (fluorescence polarisation probe displacement); type: binding; parameters: 6His tagged human ALK5 (residues162-503) was grown and purified from insect cells; 6His; made in house; host or cells: insect cells; conditions: read-out: EAA2: activity (μM) using Enzyme Assay 2
How it was run: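 Recombinant ALK5 (3 μg/mL) incubated with test compound in 50 mM HEPES pH7.4, 10 mM MgCl2, 1 mM DTT, 0.01% CHAPS. Displacement of a fluorescent quinazoline-based ALK5 probe (50 nM final) in presence of 1 μM ATP read by fluorescence polarisation.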

[4] = IT6 (abbreviation not defined)

Structure (SMILES): COc1cc(Nc2cc(Oc3ccc(C)nc3-c3cccc(C)c3)ccn2)cc(OC)c1OC [Example 57, 4-[6-Methyl-2-(3-methylphenyl)pyridin-3-yl]oxy-N-(3,4,5-trimethoxyphenyl)-pyridin-2-amine]
- IC50 (human ALK5 [1]): 0.0154 µM
- IC50 [2]: 90.4 nM

Structure (SMILES): CNC(=O)c1nc(C)ccc1Oc1ccnc(Nc2ccccc2)c1 [Example 97, 3-(2-Anilinopyridin-4-yl)oxy-N,6-dimethylpyridine-2-carboxamide]
- IC50 (human ALK5 [3]): 0.348 µM
- IT6 [4]: 0.9458

Structure (SMILES): Cc1cc(Oc2ccnc(Nc3ccc(C#N)cc3)c2)c(-c2ccccn2)nc1C [Example 34, 4-{[4-(5,6-Dimethyl-2-pyridin-2-yl-pyridin-3-yl)-oxypyridin-2-yl]amino}benzonitrile]
- IC50 (human ALK5 [1]): 0.0215 µM
- IC50 (human ALK5 [3]): 0.0255 µM

Structure (SMILES): COc1ccc(S(C)(=O)=O)cc1Nc1cc(Oc2cc(C)c(C)nc2-c2ccccn2)ccn1 [Example 17, 4-(5,6-Dimethyl-2-pyridin-2-yl-pyridin-3-yl)oxy-N-(2-methoxy-5-methylsulfonyl-phenyl)pyridin-2-amine]
- IC50 (human ALK5 [1]): 0.0147 µM
- IC50 (human ALK5 [3]): 0.0514 µM

Structure (SMILES): COc1cc(Nc2cc(Oc3ccc(C)nc3-c3cscc3C)ccn2)cc(OC)c1OC [Example 46, 4-[6-Methyl-2-(4-methylthiophen-3-yl)pyridin-3-yl]oxy-N-(3,4,5-trimethoxyphenyl)pyridin-2-amine]
- IC50 (human ALK5 [1]): 0.0153 µM
- IC50 (human ALK5 [3]): 0.0175 µM

Structure (SMILES): Cc1cc(Oc2ccnc(Nc3ccc(N4CCN(C)CC4)cc3)c2)c(-c2ccccn2)nc1C [Example 20, 4-(5,6-Dimethyl-2-pyridin-2-yl-pyridin-3-yl)oxy-N-[4-(4-methyl-piperazin-1-yl)phenyl]pyridin-2-amine]
- IC50 (human ALK5 [1]): 0.0104 µM
- IC50 (human ALK5 [3]): 0.0166 µM

Structure (SMILES): Cc1cc(Oc2ccnc(Nc3ccc(F)cc3F)c2)c(-c2ccccn2)nc1C [Example 37, N-(2,4-Difluorophenyl)-4-(5,6-dimethyl-2-pyridin-2-yl-pyridin-3-yl)oxy-pyridin-2-amine]
- IC50 (human ALK5 [1]): 0.036 µM
- IC50 (human ALK5 [3]): 0.0216 µM
